Data from patent publication US20080153800A1, “NOVEL CRYSTALLINE COMPOUND” (AstraZeneca AB, priority 2006, published 2008).

Legend:
[1] = Conversion of the crystalline form in aqueous media; type: physicochemical
Description: International patent application PCT/GB2006/002471 (WO2007/007041) discloses the Agent in 2 different crystalline forms (Example 39k). […] This form will hereinafter be referred to as Form A′. The preparation of Form A is also described in the Example hereinafter.
This form of the Agent will hereinafter be referred to as Form B.

[2] = Competitive slurries of Form A and Form B in a range of solvents; type: physicochemical
Description: Form B also has a much higher melting endotherm.

Row | SMILES | conversion to other forms in aqueous media [1] | relative stability of crystalline forms in competitive slurries [2]
1 | CC(C)Oc1cc(Oc2cnc(C(=O)N3CCC3)cn2)cc(C(=O)Nc2cc[nH]n2)c1 [Form A, 3-{[5-(Azetidin-1-ylcarbonyl)pyrazin-2-yl]oxy}-5-[(1-methylethyl)oxy]-N-1H-pyrazol-3-ylbenzamide] | convert to the amorphous form | –
2 | CC(C)Oc1cc(Oc2cnc(C(=O)N3CCC3)cn2)cc(C(=O)Nc2cc[nH]n2)c1 [Form A′, 3-{[5-(azetidin-1-ylcarbonyl)pyrazin-2-yl]oxy}-5-[(1-methylethyl)oxy]-N-1H-pyrazol-3-ylbenzamide] | convert to the amorphous form | –
3 | CC(C)Oc1cc(Oc2cnc(C(=O)N3CCC3)cn2)cc(C(=O)Nc2cc[nH]n2)c1 [Form B, 3-{[5-(azetidin-1-ylcarbonyl)pyrazin-2-yl]oxy}-5-[(1-methylethyl)oxy]-N-1H-pyrazol-3-ylbenzamide] | does not significantly convert to other forms | most stable form
